Source: ChEMBL document CHEMBL4477215, “Specific Correction of Alternative Survival Motor Neuron 2 Splicing by Small Molecules: Discovery of a Potential Novel Medicine To Treat Spinal Muscular Atrophy” (J Med Chem, 2016)
Each block holds one molecule with its values, some of them ahead of it. Calls of active or inactive are those of the source. No cut-off for these calls is given here.

Columns and labels:
[1] = tested on: Mus musculus; assay: Inhibition of mRNA splicing of SMN2 exon 7 in C/C-allele mouse harboring FVB.129(B6) Smn1tm5(Smn1/SMN2)Mrph/J assessed as increase in SMN protein level in quadriceps at 3 mg/kg, po qd for 10 days measured 1 hr after 10th dose by HTRF assay relative to control; assay type: functional; parameters: scale not given: the % may be the effect or the level left
[2] = AUC in plasma of wild type mouse at 1 mg/kg, ip measured on postnatal day 10; assay type: ADME, organism-based
[3] = Unbound AUC in plasma of wild type mouse at 1 mg/kg, ip measured on postnatal day 10; assay type: ADME, organism-based; details: in vivo
[4] = tested on: Mus musculus; assay: (§1) Inhibition of mRNA splicing of SMN2 exon 7 in neonatal delta7 mouse harboring FVB.Cg-Tg(SMN2 delta7)4299Ahmb Tg(SMN2)-89Ahmb Smn1tm1Msd/J assessed as increase in SMN protein level in brain at 0.1 mg/kg, ip qd administered from postnatal day 3 to postnatal day 9 measured 1 hr after last dose by HTRF assay relative to control; assay type: functional; parameters: scale not given: the % may be the effect or the level left
[5] = tested on: Mus musculus; assay: as §1, with “quadriceps” for “brain”; assay type: functional; parameters: scale not given: the % may be the effect or the level left
[6] = tested on: Mus musculus; assay: Increase in survival of delta7 mouse harboring FVB.Cg-Tg(SMN2 delta7)4299Ahmb Tg(SMN2)89Ahmb Smn1tm1Msd/J at 0.03 to 0.1 mg/kg, ip qd administered from PND3 to PND23 followed by 0.03 to 0.1 mg/kg/day via oral gavage from PND24 to PND65; assay type: functional, organism-based
[7] = tested on: Mus musculus; assay: Increase in body weight of delta7 mouse harboring FVB.Cg-Tg(SMN2 delta7)4299Ahmb Tg(SMN2)89Ahmb Smn1tm1Msd/J at 0.03 to 0.1 mg/kg, ip qd administered from PND3 to PND23 followed by 0.03 to 0.1 mg/kg/day via oral gavage from PND24 to PND65; assay type: functional, organism-based
[8] = AUC in plasma of wild type mouse at 3 mg/kg, ip measured on postnatal day 10; assay type: ADME, organism-based
[9] = Unbound AUC in plasma of wild type mouse at 3 mg/kg, ip measured on postnatal day 10; assay type: ADME, organism-based; details: in vivo
[10] = tested on: Mus musculus; assay: as §1, with “3” for “0.1”; assay type: functional; parameters: scale not given: the % may be the effect or the level left
[11] = tested on: Mus musculus; assay: as §1, with “quadriceps” for “brain”, “3” for “0.1”; assay type: functional; parameters: scale not given: the % may be the effect or the level left
[12] = tested on: Mus musculus; assay: Increase in survival of ip dosed delta7 mouse harboring FVB.Cg-Tg(SMN2 delta7)4299Ahmb Tg(SMN2)89Ahmb Smn1tm1Msd/J administered intraperitoneally once daily from PND3 to PND23 followed by oral gavage dosing qd from PND24 to PND65; assay type: functional, organism-based
[13] = tested on: Mus musculus; assay: Increase in survival of delta7 mouse harboring FVB.Cg-Tg(SMN2 delta7)4299Ahmb Tg(SMN2)89Ahmb Smn1tm1Msd/J assessed as mouse survival beyond PND50 at 1 to 3 mg/kg, ip qd administered from PND3 to PND23 followed by 1 to 3 mg/kg/day via oral gavage from PND24 to PND65; assay type: functional
[14] = tested on: Mus musculus; assay: Increase in survival of delta7 mouse harboring FVB.Cg-Tg(SMN2 delta7)4299Ahmb Tg(SMN2)89Ahmb Smn1tm1Msd/J assessed as mouse survival beyond PND60 at 3 to 10 mg/kg, ip qd administered from PND3 to PND23 followed by 3 to 10 mg/kg/day via oral gavage from PND24 to PND65; assay type: functional
[15] = tested on: Mus musculus; assay: Increase in body weight of delta7 mouse harboring FVB.Cg-Tg(SMN2 delta7)4299Ahmb Tg(SMN2)89Ahmb Smn1tm1Msd/J assessed as mouse body weight beyond PND50 at 1 to 3 mg/kg, ip qd administered from PND3 to PND23 followed by 1 to 3 mg/kg/day via oral gavage from PND24 to PND65; assay type: functional, organism-based
[16] = tested on: Mus musculus; assay: Increase in body weight of delta7 mouse harboring FVB.Cg-Tg(SMN2 delta7)4299Ahmb Tg(SMN2)89Ahmb Smn1tm1Msd/J assessed as mouse body weight beyond PND60 at 3 to 10 mg/kg, ip qd administered from PND3 to PND23 followed by 3 to 10 mg/kg/day via oral gavage from PND24 to PND65; assay type: functional, organism-based
[17] = species on record: Homo sapiens; assay: Inhibition of mRNA splicing of SMN2 exon 7 in fibroblasts derived from human SMA type 1 patient assessed as increase in SMN protein level at 0.01 to 10 uM by HTRF assay
[18] = species on record: Homo sapiens; assay: Inhibition of mRNA splicing of SMN2 exon 7 in spinal motor neurons derived from human SMA type 1/2 patient induced pluripotent stem cells assessed as increase in SMN protein level at 0.01 to 1 uM by HTRF assay; parameters: scale not given: the % may be the effect or the level left
[19] = tested on: Mus musculus; assay: Inhibition of mRNA splicing of human SMN2 exon 7 in transgenic SMA C/C-allele mouse brain administered orally qd for 10 days; assay type: functional, organism-based
[20] = tested on: Mus musculus; assay: Inhibition of mRNA splicing of human SMN2 exon 7 in transgenic SMA C/C-allele mouse brain assessed as increase in SMN protein level administered orally qd for 10 days; assay type: functional, organism-based

- AUC [2]: 4300 ng·h/mL
- fAUC [3]: 721 ng·h/mL
Compound: Cc1cn2cc(-c3cc(=O)n4cc(N5CCN(C)CC5)ccc4n3)cc(F)c2n1
- Activity [1]: 81%
- Activity [4]: 72%
- Activity [5]: 107%
- Activity [6]: Active
- Activity [7]: Active

Compound: Cc1cn2cc(-c3cc(=O)n4cc(N5CCN(C)CC5)ccc4n3)cc(C)c2n1
- Activity [1]: 70%
- AUC [8]: 1300 ng·h/mL
- fAUC [9]: 208 ng·h/mL
- Activity [10]: 162%
- Activity [11]: 130%
- Activity [12]: Dose-dependent effect
- Survival [13]: 80 - 90%
- Survival [14]: 80 - 90%
- Activity [15]: Active
- Activity [16]: Active

Compound: CCc1nc(C)cn2nc(-c3cc(=O)n4cc(C5CCN(C)CC5)cc(C)c4n3)cc12
- Activity [1]: 57%
- AUC [8]: 5900 ng·h/mL
- fAUC [9]: 118 ng·h/mL
- Activity [10]: 135%
- Activity [11]: 160%
- Activity [12]: Dose-dependent effect
- Survival [13]: 80 - 90%
- Survival [14]: 80 - 90%
- Activity [15]: Active
- Activity [16]: Active
- inhibition [17]: Active
- Activity [18]: 60 to 80%
- inhibition [19]: Dose-dependent effect
- inhibition [20]: Dose-dependent effect
